The assay concerns the target Human LPA1 (Homo sapiens, UniProt Q92633). The assay can be described thus: Beta-Arrestin based assay for human LPA1R antagonists (PathHunter). On the set-up: host or cells: CHO. To be noted: CHO cells stably expressing ProLink tagged human LPA1R; agonist LPA 0.5 micromolar. It is filed as cell-based. As to the method:
Beta-Arrestin Based Assays for Human LPA1R Antagonists and Agonists
A CHO cell line stably expressing the ProLink™ tagged human LPA1R was obtained from DiscoverX Inc, Fremont, Calif. In this system, β-Arrestin was fused to an N-terminal deletion mutant of β-galactosidase (termed the enzyme acceptor or EA), the human LPA1R was fused to a smaller (42 amino acids) weakly complementing fragment termed ProLink™. […] Cell handling and assays were performed according to protocols specified in the PathHunter® assays kits (DiscoverX, Fremont, Calif.). Assays were performed in quadruplicate in white 384 well plates. End point luminescence data were plotted and fit to a 4 parameter logistic function to obtain IC50 values. For antagonist assays, an […] concentration of agonist (LPA) equal to 0.5 micromolar was used.
Sequence of Human LPA1 (Q92633 whole entry): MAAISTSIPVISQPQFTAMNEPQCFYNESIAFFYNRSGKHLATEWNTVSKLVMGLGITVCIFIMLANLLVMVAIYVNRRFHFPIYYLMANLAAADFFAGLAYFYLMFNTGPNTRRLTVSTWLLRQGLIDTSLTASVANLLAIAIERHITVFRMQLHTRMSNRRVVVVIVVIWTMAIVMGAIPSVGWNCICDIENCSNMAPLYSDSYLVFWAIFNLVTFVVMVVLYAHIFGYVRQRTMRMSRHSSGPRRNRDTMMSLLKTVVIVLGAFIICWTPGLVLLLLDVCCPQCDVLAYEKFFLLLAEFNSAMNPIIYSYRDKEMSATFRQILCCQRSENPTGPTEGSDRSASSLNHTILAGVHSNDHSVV
The EC50 is the concentration at which the effect is half-maximal. `Cc1noc(C#Cc2ccc3cc(C4(C(=O)O)CC4)ccc3c2)c1NC(=O)O[C@H](C)c1ccccc1Cl` [Compound 131] had an EC50 of less than 50 nM. `O=C(O)Cc1ccc(N2CCN(C(=O)CCCNC(=O)OCc3ccccc3)CC2)cc1` [Compound 270] gave an EC50 greater than 500 nM. The compound `Cc1nsc(-c2ccc3c(c2)CCc2cc(C4(C(=O)O)CC4)ccc2-3)c1NC(=O)O[C@H](C)c1ccccc1Cl` [Compound 249] showed an EC50 of less than 50 nM. In the case of `CC(=O)Nc1ccnc(-c2ccc(-c3ccc(CC(=O)O)cc3)cc2)c1` [reference compound], the EC50 was greater than 500 nM. Compound `C[C@@H](OC(=O)Nc1nncn1-c1ccc(-c2ccc(C3(C(=O)O)CC3)cc2)cc1)c1ccccc1Cl` [Compound 159] came in with an EC50 greater than 500 nM. The same measure for `Cc1noc(-c2ccc(-c3ccc(C4(C(=O)O)CN(C)C4)cc3)cc2)c1NC(=O)O[C@H](C)c1ccccc1Cl` [Compound 39]: 50 to 500 nM. `Cc1cc(-c2snc(C)c2NC(=O)O[C@H](C)c2ccccc2Cl)c(C)cc1-c1ccc(C2(C(=O)O)CC2)cc1` [Compound 123] displayed an EC50 of 50 to 500 nM. On to `O=C(O)Cc1ccc(C2CCN(C(=O)[C@@H](Cc3ccccc3)NC(=O)OCc3ccccc3)CC2)cc1` [Compound 257], for which the EC50 is greater than 500 nM. In the case of `C[C@@H](OC(=O)Nc1nncn1-c1ccc(-c2ccc(C3(C(=O)O)CC3)cc2)cc1)c1ccccc1` [Compound 158], the EC50 was greater than 500 nM.

`Cc1noc(-c2ccc(-c3ccc(N4CCC[C@@H](C(=O)O)C4)cc3)cc2)c1NC(=O)O[C@H](C)c1ccccc1Cl` [Compound 138] showed an EC50 of 50 to 500 nM. Consider `Cc1noc(-c2ccc(-c3ccc(C4(C(=O)O)CC4)cc3)cc2)c1NC(=O)OC1(c2ccccc2)CC1` [Compound 76], for which the half-maximal effective concentration (EC50) fell in the range of 50 to 500 nM. With `Cc1nsc(-c2ccc(-c3ccc(C4(C(=O)O)CC4)cc3)cc2Cl)c1NC(=O)O[C@H](C)c1ccccc1Cl` [Compound 187], the EC50 is less than 50 nM.

With `Cc1noc(-c2ccc(Nc3ccccc3C(=O)O)cc2)c1NC(=O)O[C@H](C)c1ccccc1Cl` [Compound 22], the EC50 is greater than 500 nM. The same measure for `C[C@@H](OC(=O)Nc1oc2ccccc2c1-c1ccc(-c2ccc(C3(C(=O)O)CC3)cc2)cc1)c1ccccc1` [Compound 208]: greater than 500 nM; for `Cc1nc(-c2ccc(-c3ccc(C4(C(=O)O)CC4)cc3)cc2)c(NC(=O)OCc2ccccc2)o1` [Compound 156]: greater than 500 nM.

In turn, `C[C@@H](OC(=O)Nc1c(-c2ccc(-c3ccc(C4(C(=O)O)CC4)cc3)cc2F)cnn1C)c1ccccc1` [Compound 204] showed an EC50 of less than 50 nM.

Compound `Cc1nc(NC(=O)O[C@H](C)c2ccccc2)n(-c2ccc(-c3ccc(C4(C(=O)O)CC4)cc3)cc2)n1` [Compound 161] gave an EC50 greater than 500 nM. The compound `C[C@@H](OC(=O)Nc1cncn1-c1ccc(-c2ccc(C3(C(=O)O)CC3)cc2)cc1)c1ccccc1` [Compound 165] came in with an EC50 of 50 to 500 nM. In turn, `Cc1cc(CC(=O)O)ccc1-c1ccc(-c2snc(C)c2NC(=O)O[C@H](C)c2ccccc2Cl)cc1` [Compound 193] returned a 50% effective concentration (EC50) of 50 to 500 nM. With `C[C@@H](OC(=O)Nc1cncn1-c1ccc(-c2ccc(C3(C(=O)O)CC3)cc2)cc1)c1ccccc1Cl` [Compound 164] the figure was 50 to 500 nM; with `Cc1nsc(-c2ccc(-c3ccc(C4(C(=O)O)CC4)cc3)cc2)c1NC(=O)O[C@@H](C)C1=C(Cl)CCC1` (single isomer, unassigned) [Compound 217], greater than 500 nM. The same measure for `Cc1nsc(-c2ccc3c(c2)CCc2cc(C4(C(=O)O)CC4)ccc2-3)c1NC(=O)O[C@H](C)c1ccccc1` [Compound 245]: less than 50 nM; for `Cc1nsc(-c2ccc(-c3ccc(C4(C(=O)O)CC4)cc3)c(F)c2)c1NC(=O)O[C@H](C)c1ccccc1Cl` [Compound 117]: less than 50 nM. The compound `Cc1nsc(-c2ccc(-c3ccc(C4(C(=O)O)CC4)cc3)cc2)c1NC(=O)OC(C)C` [Compound 95] registered an EC50 greater than 500 nM. In the case of `O=C(O)Cc1ccc(N2CCN(C(=O)CNC(=O)OCc3ccccc3)CC2)cc1` [Compound 269], the EC50 was greater than 500 nM. As for `Cc1noc(-c2ccc3c(c2)CCc2cc(C4(C(=O)O)CC4)ccc2-3)c1NC(=O)O[C@H](C)c1ccccc1Cl` [Compound 248], the EC50 was less than 50 nM. On to `Cc1nsc(-c2ccc(-c3ccc(C4(C(=O)O)CC4)cc3)cc2)c1NC(=O)OCc1ccc(F)cc1Cl` [Compound 102], for which the EC50 was 50 to 500 nM. In turn, `Cc1noc2cc(-c3ccc(CC(=O)O)cc3)cc(NC(=O)O[C@H](C)c3ccccc3Cl)c12` [Compound 77] registered an EC50 greater than 500 nM. With `Cc1noc(-c2ccc(-c3ccc(C4(C(=O)O)CN(Cc5ccccc5)C4)cc3)cc2)c1NC(=O)O[C@H](C)c1ccccc1Cl` [Compound 33] the figure was less than 50 nM; with `C[C@@H](OC(=O)Nc1c(-c2ccc(-c3ccc(CC(=O)O)cc3)cc2)oc2ccccc12)c1ccccc1Cl` [Compound 31], 50 to 500 nM; with `CCn1ncc(-c2ccc(-c3ccc(C4(C(=O)O)CC4)cc3)cc2)c1NC(=O)O[C@H](C)c1ccccc1` [Compound 221], less than 50 nM. In the case of `Cc1nsc(-c2ccc(-c3ccc(C4(C(=O)O)CC4)cn3)cc2)c1NC(=O)O[C@H](C)c1ccccc1Cl` [Compound 252], the EC50 is 50 to 500 nM. Consider `Cc1nsc(-c2ccc(-c3ccc(C4(C(=O)O)CC4)cc3)cc2)c1NC(=O)O[C@@H](C)C1=C(Cl)CCCC1` [Compound 219], for which the EC50 lay within 50 to 500 nM. For `O=C(O)Cc1ccc(N2CCN(C(=O)[C@@H](Cc3ccccc3)NC(=O)OCc3ccccc3)CC2)cc1` [Compound 266], the half-maximal effective concentration (EC50) is greater than 500 nM. `C[C@H](NC(=O)OCc1ccccc1)C(=O)N1CCN(c2ccc(CC(=O)O)cc2)CC1` [Compound 267] registered an EC50 greater than 500 nM. With `Cc1cc(-c2ccc(-c3snc(C)c3NC(=O)O[C@H](C)c3ccccc3Cl)cc2)ccc1CC(=O)O` [Compound 118], the EC50 lay in the range of 50 to 500 nM. The same measure for `C[C@@H](OC(=O)Nc1ncsc1-c1ccc(-c2ccc(C3(C(=O)O)CC3)cc2)cc1)c1ccccc1` [Compound 109]: 50 to 500 nM. `Cc1noc(-c2ccc(-c3ccc(N4CCC[C@@H](C(=O)O)C4)cc3)cc2)c1NC(=O)O[C@H](C)c1ccccc1` [Compound 136] registered an EC50 of 50 to 500 nM. The compound `Cc1ccc2c(NC(=O)O[C@H](C)c3ccccc3Cl)c(-c3ccc(-c4ccc(C5(C(=O)O)CC5)cc4)cc3)oc2c1` [Compound 52] returned an EC50 greater than 500 nM. Consider `Cc1nsc(-c2ccc(-c3ccc(C4(C(=O)O)CC4)cc3)cc2F)c1NC(=O)O[C@H](C)c1ccccc1Cl` [Compound 119], for which the concentration for a half-maximal effect (EC50) was less than 50 nM. With `COC(=O)N1CC(C(=O)O)(c2ccc(-c3ccc(-c4onc(C)c4NC(=O)O[C@H](C)c4ccccc4Cl)cc3)cc2)C1` [Compound 37] the figure was less than 50 nM; with `Cc1noc(-c2ccc(-c3ccc(N4CC[C@H](C(=O)O)C4)cc3)cc2)c1NC(=O)O[C@H](C)c1ccccc1` [Compound 132], 50 to 500 nM. Compound `C[C@@H](OC(=O)Nc1cnnn1-c1ccc(-c2ccc(C3(C(=O)O)CC3)cc2)cc1)c1ccccc1` [Compound 66] returned an EC50 of 50 to 500 nM. As to `Cc1nsc(-c2ccc(-c3ccc(C4(C(=O)O)CC4)cc3)c3c2CCC3)c1NC(=O)O[C@H](C)c1ccccc1` [Compound 239], the EC50 was greater than 500 nM.

`Cc1noc(-c2ccc(-c3ccc(C4(C(=O)O)CN(S(C)(=O)=O)C4)cc3)cc2)c1NC(=O)O[C@H](C)c1ccccc1Cl` [Compound 38] yielded an EC50 of less than 50 nM. In the case of `Cc1nsc(-c2ccc(-c3ccc(C4(C(=O)O)CC4)cc3)cc2)c1NC(=O)OCc1cccc(Cl)c1` [Compound 97], the EC50 is less than 50 nM. Regarding `Cc1nsc(-c2ccc(-c3ccc(C4(C(=O)O)CC4)cc3)cc2F)c1NC(=O)O[C@H](C)c1ccccc1` [Compound 184], the EC50 is less than 50 nM. Take `C[C@@H](OC(=O)Nc1c(-c2ccc(-c3ccc(C4(C(=O)O)CC4)cc3)cc2)sc2ccccc12)c1ccccc1Cl` [Compound 209]: the EC50 fell in the range of 50 to 500 nM. With `Cc1nsc(-c2ccc(-c3ccc(C4(C(=O)O)CC4)cc3)cc2)c1NC(=O)OCc1ccccc1F` [Compound 73], the EC50 was in the range of 50 to 500 nM. As to `Cc1noc(-c2ccc(-c3ccc(N4CC[C@@H](C(=O)O)C4)cc3)cc2)c1NC(=O)O[C@H](C)c1ccccc1` [Compound 133], the EC50 is greater than 500 nM. The same measure for `Cc1cc(-c2ccc(C3(C(=O)O)CC3)cc2)ccc1-c1snc(C)c1NC(=O)O[C@H](C)c1ccccc1Cl` [Compound 115]: less than 50 nM; for `CCOC(=O)Cc1ccc(-c2ccc(-c3onc(C)c3NS(=O)(=O)c3ccccc3)cc2)cc1` [Compound 18]: greater than 500 nM; for `C[C@@H](OC(=O)Nc1ncoc1-c1ccc(-c2ccc(C3(C(=O)O)CC3)cc2)cc1)c1ccccc1` [Compound 143]: 50 to 500 nM.

`CCCOC(=O)NCC(=O)c1ccc(-c2ccc(CC(=O)O)cc2)cc1` [reference compound]: the EC50 is greater than 500 nM. Compound `Cc1nsc(C#Cc2ccc3cc(C4(C(=O)O)CC4)ccc3c2)c1NC(=O)O[C@H](C)c1ccccc1Cl` [Compound 93] displayed an EC50 of less than 50 nM. Compound `Cc1cc(-c2snc(C)c2NC(=O)O[C@H](C)c2ccccc2Cl)ccc1-c1ccc(C2(C(=O)O)CC2)cc1` [Compound 116] came in with an EC50 of less than 50 nM. The same measure for `O=C(Nc1ncsc1-c1ccc(-c2ccc(C3(C(=O)O)CC3)cc2)cc1)OCc1ccccc1` [Compound 111]: greater than 500 nM. `Cc1cccc2c(NC(=O)O[C@H](C)c3ccccc3Cl)c(-c3ccc(-c4ccc(C5(C(=O)O)CC5)cc4)cc3)oc12` [Compound 51] yielded an EC50 greater than 500 nM.

The compound `Cc1nsc(-c2ccc(-c3ccc(C4(C(=O)O)CC4)cc3)c(Cl)c2)c1NC(=O)O[C@H](C)c1ccccc1` [Compound 188] yielded an EC50 of less than 50 nM.

(Values after patent publication US8975235B2, “Lysophosphatidic acid receptor antagonists” (InterMune, Inc., priority 2011, dated 2015).)
